Assay results from ChEMBL document CHEMBL2176918, “Design and optimization of pyrazinecarboxamide-based inhibitors of diacylglycerol acyltransferase 1 (DGAT1) leading to a clinical candidate dimethylpyrazinecarboxamide phenylcyclohexylacetic acid (AZD7687)” (J Med Chem, 2012).

How the values were obtained:
[1] = Chemical stability in pH 1 to 10 buffer at 25 degC; format: physicochemical
[2] = Fraction unbound in rat plasma; format: ADME, cell-free
[3] = target: T1, Fatty-acid amide hydrolase 1 (Homo sapiens, UniProt O00519); assay: Inhibition of FAAH
T1 sequence (O00519 whole entry): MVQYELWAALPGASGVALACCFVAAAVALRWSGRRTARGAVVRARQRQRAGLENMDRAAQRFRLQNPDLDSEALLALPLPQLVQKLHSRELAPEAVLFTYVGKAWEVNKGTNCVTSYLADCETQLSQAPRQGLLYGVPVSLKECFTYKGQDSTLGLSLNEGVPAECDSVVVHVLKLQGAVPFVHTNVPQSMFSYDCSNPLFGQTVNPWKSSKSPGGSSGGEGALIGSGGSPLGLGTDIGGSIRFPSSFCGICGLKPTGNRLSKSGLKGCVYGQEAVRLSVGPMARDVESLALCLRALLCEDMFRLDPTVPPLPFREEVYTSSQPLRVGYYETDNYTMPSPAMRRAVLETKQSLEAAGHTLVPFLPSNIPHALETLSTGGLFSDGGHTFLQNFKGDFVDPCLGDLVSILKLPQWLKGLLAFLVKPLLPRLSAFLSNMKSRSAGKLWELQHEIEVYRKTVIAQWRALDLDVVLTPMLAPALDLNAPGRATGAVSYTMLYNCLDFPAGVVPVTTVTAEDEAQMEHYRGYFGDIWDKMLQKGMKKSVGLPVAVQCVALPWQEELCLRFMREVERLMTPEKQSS

Rattus norvegicus [4] = assay: Inhibition of plasma triacylglycerol excursion in 14 hrs fasted Han-Wistar rat at administered orally 2 hrs before bolus corn oil administration measured 1.5 hrs post corn oil challenge by oral lipid tolerance test relative to control
[5] = target: cAMP and cAMP-inhibited cGMP 3',5'-cyclic phosphodiesterase 10A (Homo sapiens, UniProt Q9Y233); assay: Inhibition of PDE10A1 […]
Sequence of cAMP and cAMP-inhibited cGMP 3',5'-cyclic phosphodiesterase 10A (Q9Y233 whole entry): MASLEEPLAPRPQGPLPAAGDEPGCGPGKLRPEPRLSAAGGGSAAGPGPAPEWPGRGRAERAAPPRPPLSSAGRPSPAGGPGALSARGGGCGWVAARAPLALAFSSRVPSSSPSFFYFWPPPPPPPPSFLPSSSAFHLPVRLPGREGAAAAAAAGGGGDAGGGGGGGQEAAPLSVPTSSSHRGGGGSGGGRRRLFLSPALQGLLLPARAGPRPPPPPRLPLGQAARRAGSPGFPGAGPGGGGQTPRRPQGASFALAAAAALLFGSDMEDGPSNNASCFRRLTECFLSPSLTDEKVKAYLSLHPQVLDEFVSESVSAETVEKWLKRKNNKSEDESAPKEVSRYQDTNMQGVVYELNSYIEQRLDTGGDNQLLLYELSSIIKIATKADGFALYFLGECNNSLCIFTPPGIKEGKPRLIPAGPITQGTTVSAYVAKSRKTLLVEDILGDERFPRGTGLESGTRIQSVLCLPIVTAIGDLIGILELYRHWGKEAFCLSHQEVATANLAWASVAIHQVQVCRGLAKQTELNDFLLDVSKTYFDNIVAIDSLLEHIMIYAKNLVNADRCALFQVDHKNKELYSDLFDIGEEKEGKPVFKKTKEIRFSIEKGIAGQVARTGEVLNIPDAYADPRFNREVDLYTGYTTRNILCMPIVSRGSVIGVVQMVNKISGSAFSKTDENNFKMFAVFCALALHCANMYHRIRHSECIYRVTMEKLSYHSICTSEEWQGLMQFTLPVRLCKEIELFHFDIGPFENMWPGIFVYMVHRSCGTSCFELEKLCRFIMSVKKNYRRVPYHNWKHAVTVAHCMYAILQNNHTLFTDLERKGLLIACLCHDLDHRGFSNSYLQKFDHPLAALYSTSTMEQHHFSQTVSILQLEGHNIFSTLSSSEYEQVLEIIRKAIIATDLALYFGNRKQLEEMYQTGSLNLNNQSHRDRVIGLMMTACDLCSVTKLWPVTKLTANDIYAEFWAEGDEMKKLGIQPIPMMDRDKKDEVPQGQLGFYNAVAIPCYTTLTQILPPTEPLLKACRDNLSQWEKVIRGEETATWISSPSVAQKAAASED

Rattus norvegicus [6] = assay: Inhibition of adipose triacylglycerol synthesis in 14 hrs fasted Han-Wistar rat assessed as decrease in ratio of [3H]palmitic acid incorporation in to TAG and DAG at 8 mg/kg administered orally and measured 1.5 hrs post dose relative to control
[7] = Clearance in Han-Wistar rat at 5.4 uM/kg, po or 2.7 uM/kg, iv; format: ADME, organism-based; settings: in vivo
[8] = Fraction unbound in mouse plasma; format: ADME, cell-free
[9] = target: T2, Diacylglycerol O-acyltransferase 1 (Rattus norvegicus, UniProt Q9ERM3); assay: Inhibition of DGAT1 in rat adipose tissue assessed as reduction in triacylglycerol synthesis; format: tissue-based
T2 sequence (Q9ERM3 whole entry): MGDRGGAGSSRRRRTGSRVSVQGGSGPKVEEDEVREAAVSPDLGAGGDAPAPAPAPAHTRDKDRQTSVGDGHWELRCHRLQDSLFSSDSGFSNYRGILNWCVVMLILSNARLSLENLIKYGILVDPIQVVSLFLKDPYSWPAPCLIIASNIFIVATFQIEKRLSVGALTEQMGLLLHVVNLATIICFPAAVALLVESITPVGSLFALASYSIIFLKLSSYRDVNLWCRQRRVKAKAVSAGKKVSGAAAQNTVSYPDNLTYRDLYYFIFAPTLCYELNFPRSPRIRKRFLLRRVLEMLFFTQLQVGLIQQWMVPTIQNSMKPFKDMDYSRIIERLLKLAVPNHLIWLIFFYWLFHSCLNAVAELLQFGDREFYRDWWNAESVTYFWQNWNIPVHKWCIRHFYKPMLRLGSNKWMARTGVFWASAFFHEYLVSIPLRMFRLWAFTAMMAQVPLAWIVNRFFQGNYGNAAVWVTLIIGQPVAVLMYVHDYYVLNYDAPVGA

[10] = target: T3, Diacylglycerol O-acyltransferase 1 (Homo sapiens, UniProt O75907); assay: Inhibition of DGAT1 in human adipose tissue assessed as reduction in triacylglycerol synthesis
T3 sequence (O75907 whole entry): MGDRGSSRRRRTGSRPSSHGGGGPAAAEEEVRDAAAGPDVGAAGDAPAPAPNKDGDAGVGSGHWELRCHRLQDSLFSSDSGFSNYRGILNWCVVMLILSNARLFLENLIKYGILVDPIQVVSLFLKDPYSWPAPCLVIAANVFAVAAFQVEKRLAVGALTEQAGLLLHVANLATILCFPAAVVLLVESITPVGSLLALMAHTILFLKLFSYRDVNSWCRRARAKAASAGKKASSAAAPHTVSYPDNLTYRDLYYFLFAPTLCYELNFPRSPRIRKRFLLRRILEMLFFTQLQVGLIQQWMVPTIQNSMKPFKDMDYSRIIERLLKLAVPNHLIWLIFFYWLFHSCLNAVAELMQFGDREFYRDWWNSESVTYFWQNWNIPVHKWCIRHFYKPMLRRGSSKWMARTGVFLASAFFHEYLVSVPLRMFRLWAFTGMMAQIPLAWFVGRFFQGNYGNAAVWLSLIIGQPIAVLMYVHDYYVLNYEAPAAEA

[11] = Intrinsic clearance in rat hepatocytes assessed as parent compound disappearance at 1 uM per 10^6 cells; format: ADME, cell-based, Hepatocyte; settings: read-out: CLH
Cytochrome P450 2C19 = Cytochrome P450 2C19 (Homo sapiens, UniProt P33261); assay: Inhibition of CYP2C19; format: ADME
Sequence of Cytochrome P450 2C19 (P33261 whole entry): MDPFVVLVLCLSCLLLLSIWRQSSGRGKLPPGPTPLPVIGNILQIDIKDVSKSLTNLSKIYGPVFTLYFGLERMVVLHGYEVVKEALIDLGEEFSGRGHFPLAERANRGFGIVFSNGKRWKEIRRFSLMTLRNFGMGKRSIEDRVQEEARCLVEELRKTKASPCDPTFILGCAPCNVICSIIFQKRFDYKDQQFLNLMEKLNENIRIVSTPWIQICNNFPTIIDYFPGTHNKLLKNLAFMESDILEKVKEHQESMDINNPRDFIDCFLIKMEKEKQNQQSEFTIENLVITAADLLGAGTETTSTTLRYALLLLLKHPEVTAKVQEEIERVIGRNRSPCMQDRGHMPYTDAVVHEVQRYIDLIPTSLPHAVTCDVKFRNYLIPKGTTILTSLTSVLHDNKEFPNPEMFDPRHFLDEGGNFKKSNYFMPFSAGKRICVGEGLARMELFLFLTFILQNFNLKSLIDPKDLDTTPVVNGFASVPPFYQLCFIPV

[12] = target: T2, Diacylglycerol O-acyltransferase 1; assay: Inhibition of DGAT1 in rat liver microsomes; parameters: species or system Microsome
[13] = Volume of distribution in C57BL/6 mouse at 8.16 uM/kg, po or 5.4 uM/kg, iv; format: ADME, organism-based; settings: in vivo
[14] = Clearance in C57BL/6 mouse at 8.16 uM/kg, po or 5.4 uM/kg, iv; format: ADME, organism-based; settings: in vivo
[15] = Fraction unbound in human plasma at 37 degC by LC-UV/MS method based equilibrium dialysis method
Cytochrome P450 2D6 = Cytochrome P450 2D6 (Homo sapiens, UniProt P10635); assay: Inhibition of CYP2D6; format: ADME
Sequence of Cytochrome P450 2D6 (P10635 whole entry): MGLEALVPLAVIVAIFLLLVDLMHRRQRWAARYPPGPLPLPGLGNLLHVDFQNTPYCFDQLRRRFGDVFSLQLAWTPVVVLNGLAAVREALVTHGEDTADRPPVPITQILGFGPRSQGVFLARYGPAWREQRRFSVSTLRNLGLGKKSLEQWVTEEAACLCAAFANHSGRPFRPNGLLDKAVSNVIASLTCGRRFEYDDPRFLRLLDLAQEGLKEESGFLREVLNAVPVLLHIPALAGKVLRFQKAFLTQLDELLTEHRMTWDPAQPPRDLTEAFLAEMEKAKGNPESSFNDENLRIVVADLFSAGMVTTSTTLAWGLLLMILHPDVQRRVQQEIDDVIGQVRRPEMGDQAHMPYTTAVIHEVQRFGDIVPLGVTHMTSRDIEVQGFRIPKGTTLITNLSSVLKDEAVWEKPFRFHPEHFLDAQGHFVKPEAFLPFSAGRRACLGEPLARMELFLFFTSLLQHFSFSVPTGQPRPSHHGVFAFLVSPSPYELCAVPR

Cytochrome P450 2C9 = Cytochrome P450 2C9 (Homo sapiens, UniProt P11712); assay: Inhibition of CYP2C9; format: ADME
Sequence of Cytochrome P450 2C9 (P11712 whole entry): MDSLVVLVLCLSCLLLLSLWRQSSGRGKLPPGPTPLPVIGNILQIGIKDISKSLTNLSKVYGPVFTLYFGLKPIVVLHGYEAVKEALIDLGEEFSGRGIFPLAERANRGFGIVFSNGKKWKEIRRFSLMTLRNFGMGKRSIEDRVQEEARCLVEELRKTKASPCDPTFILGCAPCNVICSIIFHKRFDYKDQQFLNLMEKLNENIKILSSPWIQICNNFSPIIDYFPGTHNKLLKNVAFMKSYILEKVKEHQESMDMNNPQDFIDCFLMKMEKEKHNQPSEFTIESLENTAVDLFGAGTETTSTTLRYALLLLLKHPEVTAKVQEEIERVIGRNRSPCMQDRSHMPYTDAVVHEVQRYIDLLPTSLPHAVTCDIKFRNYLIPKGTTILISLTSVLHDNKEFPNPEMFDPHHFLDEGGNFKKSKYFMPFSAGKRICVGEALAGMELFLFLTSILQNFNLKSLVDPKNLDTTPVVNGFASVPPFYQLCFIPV

[16] = Tmax in human at 1 to 20 mg; format: ADME, organism-based; settings: in vivo
[17] = target: T4, Diacylglycerol O-acyltransferase 1 (Mus musculus, UniProt Q9Z2A7); assay: Inhibition of DGAT1 in mouse liver microsomes; parameters: species or system Microsome
T4 sequence (Q9Z2A7 whole entry): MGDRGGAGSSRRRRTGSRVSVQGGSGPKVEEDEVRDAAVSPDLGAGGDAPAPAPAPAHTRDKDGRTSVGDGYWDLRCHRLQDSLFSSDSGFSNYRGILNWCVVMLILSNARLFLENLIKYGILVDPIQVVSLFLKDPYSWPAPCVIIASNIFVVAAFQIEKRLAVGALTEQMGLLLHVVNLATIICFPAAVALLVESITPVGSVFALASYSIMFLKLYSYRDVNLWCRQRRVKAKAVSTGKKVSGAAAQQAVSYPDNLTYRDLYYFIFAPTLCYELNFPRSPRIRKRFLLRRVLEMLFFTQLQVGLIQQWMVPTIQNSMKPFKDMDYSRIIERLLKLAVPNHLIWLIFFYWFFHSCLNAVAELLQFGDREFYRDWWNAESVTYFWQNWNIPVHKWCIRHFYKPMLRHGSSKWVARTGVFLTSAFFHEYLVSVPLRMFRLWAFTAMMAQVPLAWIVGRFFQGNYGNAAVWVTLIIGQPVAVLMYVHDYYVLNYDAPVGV

half-life [1]: > 100 days
fraction unbound [2]: 0.03
IC50 [3]: 3700 nM
IC50 [5]: 5500 nM
IC50 (Rattus norvegicus [6]): 132 nM
clearance [7]: 0.5 mL/min/kg
fraction unbound [8]: 0.1
IC50 [9]: 90 nM
IC50 [10]: 10 nM
hepatocyte CLint at 1 µM [11]: < 2 µL/min/1e6 cells
IC50 (Cytochrome P450 2C19): > 30000 nM
IC50 [12]: 150 nM
Vd [13]: 0.9 L/kg
clearance [14]: 0.77 mL/min/kg
fraction unbound [15]: 0.047
IC50 (Cytochrome P450 2D6): > 30000 nM
IC50 (Cytochrome P450 2C9): > 30000 nM
Tmax [16]: ≤ 0.0417 days
IC50 [17]: 100 nM
SMILES: Cc1nc(C)c(-c2ccc(C3CCC(CC(=O)O)CC3)cc2)nc1C(N)=O (stereo not given) [AZD-7687]
IC50 (Rattus norvegicus [4]): 42 nM
